Experiment [1] concerns the target Sucrase-isomaltase, intestinal (Rattus norvegicus) (UniProt P23739). Description: Inhibition of rat intestinal sucrase using p-nitrophenyl-alpha-d-glucopyranoside as substrate at 1 mM incubated for 10 mins prior to substrate addition measured after 5 mins by spectrophotometry.
The target of experiment [2] is Sucrase-isomaltase, intestinal (Rattus norvegicus, UniProt P23739). Description: Inhibition of rat intestinal sucrase using p-nitrophenyl-alpha-d-glucopyranoside as substrate incubated for 10 mins prior to substrate addition measured after 5 mins by spectrophotometry.
Sucrase-isomaltase, intestinal, sequence (P23739 1-1013 limits assumed): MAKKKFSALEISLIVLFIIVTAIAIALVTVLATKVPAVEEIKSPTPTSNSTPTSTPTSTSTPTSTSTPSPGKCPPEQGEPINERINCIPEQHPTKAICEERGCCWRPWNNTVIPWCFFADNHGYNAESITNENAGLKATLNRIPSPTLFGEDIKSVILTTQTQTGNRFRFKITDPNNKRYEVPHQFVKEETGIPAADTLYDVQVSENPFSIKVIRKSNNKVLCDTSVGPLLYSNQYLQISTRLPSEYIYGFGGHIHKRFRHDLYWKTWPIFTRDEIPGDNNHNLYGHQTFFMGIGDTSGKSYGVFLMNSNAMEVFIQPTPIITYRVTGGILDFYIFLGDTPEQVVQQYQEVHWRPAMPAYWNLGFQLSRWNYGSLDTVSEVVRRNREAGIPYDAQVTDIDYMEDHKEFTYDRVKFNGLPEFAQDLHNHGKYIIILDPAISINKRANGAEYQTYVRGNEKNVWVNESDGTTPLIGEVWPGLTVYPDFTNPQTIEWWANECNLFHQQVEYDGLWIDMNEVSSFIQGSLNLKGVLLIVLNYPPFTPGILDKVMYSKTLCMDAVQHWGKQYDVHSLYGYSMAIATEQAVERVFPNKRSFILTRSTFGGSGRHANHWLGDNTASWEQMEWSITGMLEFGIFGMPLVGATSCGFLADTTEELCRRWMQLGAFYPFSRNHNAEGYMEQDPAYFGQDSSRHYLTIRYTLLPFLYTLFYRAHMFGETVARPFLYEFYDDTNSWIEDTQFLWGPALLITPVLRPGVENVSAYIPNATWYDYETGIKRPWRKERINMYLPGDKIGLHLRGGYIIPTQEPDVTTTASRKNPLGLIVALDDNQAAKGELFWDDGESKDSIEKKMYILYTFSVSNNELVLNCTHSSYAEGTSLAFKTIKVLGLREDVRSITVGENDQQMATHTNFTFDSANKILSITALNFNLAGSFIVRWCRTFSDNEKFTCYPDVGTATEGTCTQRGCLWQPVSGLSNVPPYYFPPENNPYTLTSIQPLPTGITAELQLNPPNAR
Sucrase-isomaltase, intestinal, sequence (P23739 1014-1841 limits assumed): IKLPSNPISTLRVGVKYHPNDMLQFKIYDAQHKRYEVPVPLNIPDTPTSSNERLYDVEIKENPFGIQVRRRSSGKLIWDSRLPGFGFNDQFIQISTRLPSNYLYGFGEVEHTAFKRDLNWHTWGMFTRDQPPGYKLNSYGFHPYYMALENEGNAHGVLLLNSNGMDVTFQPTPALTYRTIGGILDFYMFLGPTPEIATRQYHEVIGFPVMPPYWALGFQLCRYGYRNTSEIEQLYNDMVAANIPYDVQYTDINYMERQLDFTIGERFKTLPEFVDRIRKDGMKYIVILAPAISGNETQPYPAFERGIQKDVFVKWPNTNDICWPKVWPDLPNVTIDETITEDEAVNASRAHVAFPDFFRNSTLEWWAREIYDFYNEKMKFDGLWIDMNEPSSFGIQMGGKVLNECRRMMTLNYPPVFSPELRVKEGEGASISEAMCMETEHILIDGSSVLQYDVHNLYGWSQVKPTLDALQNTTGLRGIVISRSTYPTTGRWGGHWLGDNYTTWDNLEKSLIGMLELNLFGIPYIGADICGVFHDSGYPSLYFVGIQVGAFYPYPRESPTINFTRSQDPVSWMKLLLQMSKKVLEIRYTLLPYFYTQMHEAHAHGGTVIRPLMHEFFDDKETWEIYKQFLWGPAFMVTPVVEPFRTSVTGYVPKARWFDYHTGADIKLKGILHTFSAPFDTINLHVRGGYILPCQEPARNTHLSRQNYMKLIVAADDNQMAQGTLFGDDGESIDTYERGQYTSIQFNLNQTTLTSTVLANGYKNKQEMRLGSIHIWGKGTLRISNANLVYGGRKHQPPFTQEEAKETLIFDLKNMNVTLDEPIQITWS

Each structure is given as a SMILES string.

Sucrase-isomaltase, intestinal (Rattus norvegicus), sequence (P23739 1-1013 limits assumed): as the sequence (P23739 1-1013 limits assumed) above
Sucrase-isomaltase, intestinal (Rattus norvegicus), sequence (P23739 1014-1841 limits assumed): as the sequence (P23739 1014-1841 limits assumed) above

By inhibition is commonly meant the change of the read-out against control, counted positive when it falls. In general, IC50 refers to the concentration needed to halve the response being measured. Regarding `Oc1ccc([C@@H]2Oc3cc(O)ccc3[C@H](c3c(O)cc(O)c4c3O[C@H](c3ccc(O)c(O)c3)[C@H](O)C4)[C@H]2O)cc1`, the inhibition in experiment [1] was 84.7%. Also, in experiment [2], inhibition was half-maximal at 250 µM (IC50). Taken in the same sequence, the figures for `CC1(C)[C@@H](O)CC[C@]2(C)[C@H]3CC[C@@H]4C=C[C@H](O)[C@@]4(C)[C@]3(C)CC[C@@H]12` were 40% and more than 1000 µM. In the same order, the values of `Oc1cc(O)c2c(c1)O[C@@]1(c3ccc(O)c(O)c3)Oc3cc(O)c4c(c3[C@@H]2[C@H]1O)O[C@@H](c1ccc(O)c(O)c1)[C@H](O)[C@H]4c1c(O)cc(O)c2c1O[C@H](c1ccc(O)c(O)c1)[C@H](O)C2` [AESCULTITANNIN B] are 66.8% and 400 µM. For `Oc1cc(O)c2c(c1)O[C@H](c1ccc(O)c(O)c1)[C@@H](O)C2` [CIANIDANOL], the inhibition in experiment [1] was found to be 80%. The compound further had an IC50 in experiment [2] of 310 µM. In the case of `CC1=CC(=O)CC(C)(C)[C@H]1/C=C/[C@H](C)O[C@@H]1O[C@H](CO)[C@@H](O)[C@H](O)[C@H]1O`, the inhibition in experiment [1] came to 14%. Also, the IC50 in experiment [2] is more than 1000 µM.

In experiment [1], `Oc1cc(O)c2c(c1)O[C@H](c1ccc(O)c(O)c1)[C@H](O)C2` [(-)-EPICATECHIN] gave an inhibition of 61.9%. In experiment [2], this compound came in with an IC50 of 650 µM. In the same order, the values of `Oc1ccc2c(c1)O[C@H](c1ccc(O)c(O)c1)[C@@H](O)[C@@H]2c1c(O)cc2c(c1O)C[C@H](O)[C@@H](c1ccc(O)c(O)c1)O2` are 72.2% and 520 µM. In turn, `C[C@@H]1CC[C@]2(C(=O)O)CC[C@]3(C)C(=CC[C@@H]4[C@@]5(C)CC(=O)[C@H](O)C(C)(C)[C@@H]5CC[C@]43C)[C@@H]2[C@]1(C)O` returned an inhibition in experiment [1] of less than 10%.

`Oc1ccc([C@H]2Oc3cc(O)ccc3[C@H](c3c(O)cc(O)c4c3O[C@H](c3ccc(O)c(O)c3)[C@H](O)C4)[C@H]2O)cc1` gave an inhibition in experiment [1] of 68.4%. In addition, it took 480 µM to reach half-maximal inhibition in experiment [2] (IC50).

Compound `C[C@H]1[C@H](C)CC[C@]2(C(=O)O)CC[C@]3(C)C(=CC[C@@H]4[C@@]5(C)CC[C@H](O)C(C)(C)[C@@H]5CC[C@]43C)[C@H]12` [URSOLIC ACID] registered an inhibition in experiment [1] of 32%. In experiment [2], this compound yielded an IC50 of more than 1000 µM. In the same order, the values of `CC1=CC(=O)CC(C)(C)[C@H]1/C=C/[C@@H](C)O[C@@H]1O[C@H](CO)[C@@H](O)[C@H](O)[C@H]1O` are 12.5% and more than 1000 µM. For `CC1(C)C=C(C=O)[C@]2(C)[C@H]3CC=C4[C@@H]5[C@H](O)C(C)(C)CC[C@]5(C(=O)O)CC[C@@]4(C)[C@]3(C)CC[C@@H]12`, in experiment [1], the inhibition was 32.4%. Moreover, the IC50 in experiment [2] was more than 1000 µM. With `CC1=CC(=O)CC(C)(C)/C1=C\CC(C)O[C@@H]1O[C@H](CO)[C@@H](O)[C@H](O)[C@H]1O` (some centres not stated), in experiment [1], the inhibition was found to be 28.6%. This compound also showed an IC50 in experiment [2] of more than 1000 µM.

In experiment [1], `CC1=CC(=O)CC(C)(C)/C1=C/CC(C)O[C@@H]1O[C@H](CO)[C@@H](O)[C@H](O)[C@H]1O` (some centres not stated) had an inhibition of 28.3%. The compound also displayed an IC50 in experiment [2] of more than 1000 µM. In experiment [1], `C[C@H]1O[C@H](O[C@H]2[C@H](O)[C@@H](O)[C@@H](O[C@H]3[C@H](O)[C@@H](O)C(O)O[C@@H]3CO)O[C@@H]2CO)[C@H](O)[C@@H](O)[C@@H]1N[C@H]1C=C(CO)[C@@H](O)[C@H](O)[C@H]1O` (some centres not stated) displayed an inhibition of 51%. Still for that read-out and setting: next, `C=C(C)[C@@H]1CC[C@]2(C(=O)O)CC[C@]3(C)[C@H](CC[C@@H]4[C@@]5(C)CC[C@H](O)C(C)(C)[C@@H]5CC[C@]43C)[C@@H]12`: less than 10%. Same read-out and setting: then `C[C@@H]1CC[C@]2(C(=O)O)CC[C@]3(C)C(=CC[C@@H]4[C@@]5(C)C=C(O)C(=O)C(C)(C)[C@@H]5CC[C@]43C)[C@@H]2[C@]1(C)O`, with less than 10%. The compound `Oc1cc(O)c2c(c1)O[C@H](c1ccc(O)c(O)c1)[C@@H](O)[C@@H]2c1c(O)cc(O)c2c1O[C@H](c1ccc(O)c(O)c1)[C@@H](O)C2` displayed an inhibition in experiment [1] of 76%. Besides, inhibition in experiment [2] was half-maximal at 430 µM (IC50).

Source of the values: ChEMBL document CHEMBL3112477, “Rat intestinal sucrase inhibition of constituents from the roots of Rosa rugosa Thunb” (Bioorg Med Chem Lett, 2014).
